What was measured:
[1] = Discoloration of CBD solutions; format: physicochemical; settings: end of day 1
Excerpt: The CBD2 material dissolved like the CBD1 therefore the CBD2 is CBD without the discoloration properties of CBD1.

[2] = Solubility of CBD in solvents and excipients; format: physicochemical
Procedure: First, the solubility of cannabidiol (CBD) was assessed. The powder looked granulated under the microscope. […] The conclusions from the solubility studies were that OA and IPA were very good solvents and it was surprising that IPA was so much better than ethanol.
Solubility studies: CBD dissolved at the 10% level in AE and barely 9.5% in IPM. Further exploration was not conducted due to the small amount of drug API available for non-GMP work. CBD is soluble greater than 10% but probably not in excess of 20%, as the time to dissolve additional CBD was taking considerably longer.

[3] = Solubility of CBD in the Receptor Fluid; format: physicochemical; settings: not told, aqueous with cosolvent or surfactant or cyclodextrin; PBS with 0.01 wt % NaN3, 4 wt % hydroxypropyl-cyclodextrin, 1 wt % Brij O20
[4] = in ethanol; cited from earlier work
[5] = target: T1, human vanilloid receptor type 1 (VR1) (Homo sapiens, UniProt Q8NER1); settings: HEK-hVR1 transfected cells; cited from earlier work
T1 construct: expressed in transfected cells; host or cells: HEK cells transfected with hVR1 (HEK-hVR1)
T1 sequence (Q8NER1 whole entry): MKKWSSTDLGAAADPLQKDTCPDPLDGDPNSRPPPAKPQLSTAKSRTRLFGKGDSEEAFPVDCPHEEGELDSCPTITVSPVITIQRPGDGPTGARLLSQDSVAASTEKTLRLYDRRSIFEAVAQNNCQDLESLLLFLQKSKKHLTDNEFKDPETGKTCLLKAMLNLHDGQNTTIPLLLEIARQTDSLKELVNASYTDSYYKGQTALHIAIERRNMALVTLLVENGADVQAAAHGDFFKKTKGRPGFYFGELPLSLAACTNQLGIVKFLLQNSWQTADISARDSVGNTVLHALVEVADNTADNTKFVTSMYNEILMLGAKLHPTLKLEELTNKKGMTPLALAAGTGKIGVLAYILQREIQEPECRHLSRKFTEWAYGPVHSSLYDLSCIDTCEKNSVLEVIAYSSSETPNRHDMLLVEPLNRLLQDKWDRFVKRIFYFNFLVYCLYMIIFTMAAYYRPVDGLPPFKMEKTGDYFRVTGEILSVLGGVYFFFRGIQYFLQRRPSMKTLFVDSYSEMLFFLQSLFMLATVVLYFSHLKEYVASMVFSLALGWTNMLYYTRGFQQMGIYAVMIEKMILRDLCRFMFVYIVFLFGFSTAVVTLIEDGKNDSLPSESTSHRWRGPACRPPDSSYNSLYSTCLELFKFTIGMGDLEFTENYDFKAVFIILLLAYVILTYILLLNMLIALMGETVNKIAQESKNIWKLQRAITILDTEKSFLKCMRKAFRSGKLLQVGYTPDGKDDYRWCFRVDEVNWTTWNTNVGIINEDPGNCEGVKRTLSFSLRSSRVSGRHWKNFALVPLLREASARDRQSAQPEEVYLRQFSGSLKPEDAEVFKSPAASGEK

anandamide = settings: rat basophilic leukemia cells; cited from earlier work
sensitized guinea-pigs = settings: 1 mg/kg i.v.; cited from earlier work
rats = settings: 5 mg/kg, i.v., once daily for 4 weeks; cited from earlier work

Compound	discoloration of solution [1]	solubility (weight to weight) ([2]; in ethanol)	solubility (weight to weight) ([2]; in hexamethyldisiloxane (HDS))	solubility (weight to weight) ([2]; in isopropyl alcohol (IPA))	solubility ([2]; in isopropyl myristate (IPM))	solubility (weight to weight) ([2]; in mineral oil)	solubility (weight to weight) ([2]; in oleyl alcohol (OA))	solubility (weight to weight) ([2]; in propylene glycol (PG))	solubility [3]	reported solubility [4]	stimulation of human vanilloid receptor type 1 (VR1) [5]	inhibition of anandamide (anandamide)	ovalbumin-induced airway obstruction (sensitized guinea-pigs)	cardiac inflammation produced by doxorubicin (rats)
C=C(C)[C@@H]1CCC(C)=C[C@H]1c1c(O)cc(CCCCC)cc1O [CBD2]	None of the CBD2 solutions were coloured at the end of day 1													
C=C(C)[C@@H]1CCC(C)=C[C@H]1c1c(O)cc(CCCCC)cc1O [CBD1]	coloured by the end of the day													
C=C(C)C1CCC(C)=CC1c1c(O)cc(CCCCC)cc1O (stereo not drawn) [CBD, 2-[3-methyl-6-(1-methylethenyl)-2-cyclohexen-1-yl]-5-pentyl-1,3-benzenediol]		6-7%	3-4%	greater than 14%	~9.5%	3-4%	greater than 8%	6-7%	> 50 µg/mL	3.5%	maximum effect similar in efficacy to that of capsaicin	inhibit anandamide	attenuated ovalbumin-induced airway obstruction	attenuated cardiac inflammation produced by doxorubicin
